Assay results from ChEMBL document CHEMBL1150254, “Dihydroxystyrene metabolites from an association of the sponges Poecillastra wondoensis and Jaspis sp” (J Nat Prod, 2008).
Activity calls are given as the source filed them. The rule behind the calls is not given here.

Assays:
A549 = assay: Antitumor activity against human A549 cells; type: functional, cell-based
K562 = assay: Antitumor activity against human K562 cells; type: functional, cell-based
[1] = Inhibition of Staphylococcus aureus sortase A
Isocitrate lyase = Isocitrate lyase (Candida albicans, UniProt Q9P8Q7); assay: Inhibition of Candida albicans isocitrate lyase
Sequence of Isocitrate lyase (Q9P8Q7 whole entry): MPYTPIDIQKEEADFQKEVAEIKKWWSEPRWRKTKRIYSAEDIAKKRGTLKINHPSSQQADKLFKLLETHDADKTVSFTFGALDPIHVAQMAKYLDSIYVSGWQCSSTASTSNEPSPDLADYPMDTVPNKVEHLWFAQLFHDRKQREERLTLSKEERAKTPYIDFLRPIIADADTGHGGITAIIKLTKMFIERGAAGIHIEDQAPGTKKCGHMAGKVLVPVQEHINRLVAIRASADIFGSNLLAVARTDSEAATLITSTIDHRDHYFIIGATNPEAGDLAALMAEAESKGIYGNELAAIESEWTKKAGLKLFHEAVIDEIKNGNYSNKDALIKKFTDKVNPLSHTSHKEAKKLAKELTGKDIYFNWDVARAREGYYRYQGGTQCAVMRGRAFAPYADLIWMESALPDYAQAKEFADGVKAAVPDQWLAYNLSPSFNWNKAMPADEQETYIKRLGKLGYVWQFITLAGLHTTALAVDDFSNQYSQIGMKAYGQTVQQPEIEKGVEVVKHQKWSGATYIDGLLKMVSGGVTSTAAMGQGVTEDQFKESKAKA

Compound | IC50 [1] [µg/mL] | IC50 (Isocitrate lyase) [µM] | Activity (A549) | Activity (K562)
CN(C)C(=N)N.CN(C)C(=N)N.O=S(=O)(O)O/C=C/c1ccc(OC2Oc3ccc(/C=C/OS(=O)(=O)O)cc3OC2c2ccc(O)c(O)c2)c(O)c1 (centres undefined) [listing 1 of 2 here] | – | – | inactive | inactive
COC(OC)C(OC)c1ccc(O)c(O)c1 (centres undefined) | > 200 | 126 | – | –
O=S(=O)(O)O/C=C/c1ccc(OC2Oc3ccc(/C=C/OS(=O)(=O)O)cc3OC2c2ccc(O)c(O)c2)c(O)c1 (centres undefined) | – | – | inactive | inactive
O=S(=O)([O-])O/C=C\c1ccc(O)c(O)c1.[Na+] [ISOJASPISIN] | 34.2 | > 787 | – | –
O=S(=O)(O)O/C=C/c1ccc2c(c1)OC(C(O)c1ccc(O)c(O)c1)O2 (centres undefined) | – | – | inactive | inactive
CN(C)C(=N)N.O=S(=O)(O)O/C=C/c1ccc2c(c1)OC(C(O)c1ccc(O)c(O)c1)O2 (centres undefined) [listing 1 of 2 here] | – | – | inactive | inactive
C=C(CC(=O)O)C(=O)O [ITACONATE] | – | 44.6 | – | –
CN(C)C(=N)N.CN(C)C(=N)N.O=S(=O)(O)O/C=C/c1ccc(OC2Oc3ccc(/C=C/OS(=O)(=O)O)cc3OC2c2ccc(O)c(O)c2)c(O)c1 (centres undefined) [listing 2 of 2 here] | > 200 | > 259 | – | –
O=S(=O)([O-])O/C=C/c1ccc(O)c(O)c1.[Na+] [JASPISIN] | 14.6 | > 787 | – | –
CN(C)CCc1cn(C(c2ccc(O)c(O)c2)C2Oc3ccc(/C=C\OS(=O)(=O)O)cc3O2)cn1 (centres undefined) | – | – | inactive | inactive

Further lines, with some results ahead:

IC50 [1] [µg/mL] | IC50 (Isocitrate lyase) [µM] | Compound | Activity (A549) | Activity (K562)
68.3 | 164 | CN(C)CCc1cn(C(c2ccc(O)c(O)c2)C2Oc3ccc(/C=C\OS(=O)(=O)[O-])cc3O2)cn1.Cl.[Na+] (centres undefined) | – | –
163.5 | 271 | O=S(=O)([O-])O/C=C/c1ccc(OC2Oc3ccc(/C=C/OS(=O)(=O)[O-])cc3OC2c2ccc(O)c(O)c2)c(O)c1.[Na+].[Na+] (centres undefined) | – | –
> 200 | 64.2 | O=S(=O)([O-])O/C=C/c1ccc(OC2Oc3cc(/C=C/OS(=O)(=O)[O-])ccc3OC2c2ccc(O)c(O)c2)c(O)c1.[Na+].[Na+] (centres undefined) | inactive | inactive
> 200 | 306 | O=S(=O)([O-])O/C=C/c1ccc2c(c1)OC(C(O)c1ccc(O)c(O)c1)O2.[Na+] (centres undefined) | – | –
> 200 | > 356 | CN(C)CCc1cn(C(c2ccc(O)c(O)c2)C2Oc3ccc(/C=C/OS(=O)(=O)[O-])cc3O2)cn1.Cl.[Na+] (mixture of isomers) | – | –
> 200 | > 381 | CN(C)CCc1cn(C(c2ccc(O)c(O)c2)C2Oc3ccc(/C=C/OS(=O)(=O)[O-])cc3O2)cn1.[Na+] (centres undefined) | – | –
> 200 | 341 | O=S(=O)([O-])O/C=C/c1ccc2c(c1)OC(c1ccc(O)c(O)c1)C(OS(=O)(=O)[O-])O2.[Na+].[Na+] (centres undefined) | – | –
> 200 | 91.3 | CN(C)CCc1cn(C(c2ccc(O)c(O)c2)C2Oc3ccc(/C=C\OS(=O)(=O)[O-])cc3O2)cn1.[Na+] (centres undefined) | – | –
82.4 | > 426 | CN(C)C(=N)N.O=S(=O)(O)O/C=C/c1ccc2c(c1)OC(C(O)c1ccc(O)c(O)c1)O2 (centres undefined) [listing 2 of 2 here] | – | –
